Data from US20100015243A1, “METHOD FOR PREPARING MATERIALS HAVING ANTITHROMBOTIC ACTIVITY FROM MUSKRAT MUSK AND MATERIALS OBTAINED FROM THE METHOD” (priority 2006, published 2010).

System: Thrombin
Experiment: Thrombin time measurement (antithrombotic activity) with Thrombitimer2
Type: biochemical
Conditions: per 0.1 mg of asprin; time until fibrinogen clots are formed; FIG. 8
Description: As for the 4th step, a thrombin time of the divided groups in the 3rd step are measured and the group showing the highest antithrombotic activity is selected. The thrombin time is, but not limited to, a time until fibrinogen clots are formed. For example, with Thrombitimer2 (Behnk Elektronik, Germany), after adding Thrombin (T46481KU-59NIH unit/mg) and fibrinogen, the time until fibrinogen clots are formed is counted.
The activity was measured by counting a thrombin time according to the method described in Choi et al., Kor. J. Pharmacogn. 26, 154-158, 1995 and Son et al., Kor. J. Pharmacogn. 34 (1):52-61, 2004.
Specifically, the thrombin time was measured with Thrombitimer2 (Behnk Elektronik, Germany) wherein a fixed concentration of specimen was dissolved in 10 ? of dimethylsulfoxide (DMSO), the solution was added to a tube with 50 ? of borate buffer (pH7.8), Thrombin 1 unit/50 ? (T46481KU-59NIH unit/mg solid, Sigma Co., USA) was mixed with the solution, the mixture was warmed at 37° C. for 5 minutes, 200 ? of fibrinogen (0.33%, Sigma Co., USA) was added to it, and the time until coaggulation occurs was counted. […]
Antithrombotic activity was measured by counting a thrombin time and the result is an average of at least 3 experiments.

Compound: CC(=O)Oc1ccccc1C(=O)O [asprin]
- thrombin time: 15 s
